The test system of data set [1] is SARS-CoV-2. Format: cell-based.
For data set [2], the system named is SARS-CoV-2. In words: microbe, parasite or virus in culture. The data set is classed as cell-based. The conditions noted are these: Severe acute respiratory syndrome coronavirus 2, Vero C1008; Vero E6 cells, observed CPE, dose based on NIC content.
The test system of data set [3] is MERS-CoV. The data set is described as follows: microbe, parasite or virus in culture. The note with it: Middle East respiratory syndrome-related coronavirus, Vero C1008, read-out: EC50 dose for MERS-CoV. Format: cell-based.
Data set [4] can be described thus: Particle size distribution by laser diffraction (dry powder and reconstituted suspension). The note with it: after air jet milling (micronized).
A short description of data set [5]: FTIR-ATR secondary structure analysis of hLYS. The data set is classed as physicochemical.
Data set [6] has as its system methicillin-resistant S. aureus strain Mu50. The data set is described as follows: Resazurin-based microbroth dilution assay. Format: cell-based. The note with it: S. aureus Mu50, hLYS alone.
Data set [7] can be described thus: Size exclusion chromatography of hLYS aggregation before and after spray drying and nebulization. The data set is classed as physicochemical. The conditions noted are these: not nebulized.

In brackets after ≈: the same amount, converted by molar mass. Several values for one entry are separate records, joined by “and”; a condition that tells them apart may be missing. Equal values may be shown once.

As to `O=C(Nc1ccc([N+](=O)[O-])cc1Cl)c1cc(Cl)ccc1O` [NIC-M, 5-Chloro-N-(2-chloro-4-nitrophenyl)salicylamide], in data set [1] (NIC dose of 0.125 μg/mL, quantified viral particles), the “inhibitory activity against SARS-CoV-2 compared to solubilized NIC” value is “significantly improved activity compared to solubilized NIC”. The EC50 – broadly, the concentration giving half of the maximal effect – in data set [2] came to 0.03 µg/mL (≈ 0.0917 µM); in data set [3], 0.016 µg/mL (≈ 0.0489 µM).

For `O=C(Nc1ccc([N+](=O)[O-])cc1Cl)c1cc(Cl)ccc1O` [niclosamide, 5-Chloro-N-(2-chloro-4-nitrophenyl)salicylamide], in data set [4], the X50 diameter was 2.2 μm; the X90 diameter was 4.2 μm and 4.1 μm.

For “hLYS: recombinant human lysozyme (InVitria)”, in data set [5] (1618-1625 cm^−1), the “Anti-parallel β-sheet” value is on record as 21.7%. In data set [5] (1633-1637 cm^−1), the “Parallel β-sheet” value was 0.7%. Moreover, the α-helix in data set [5] (1653 cm^−1) worked out at 57.6%. In data set [5] (1678-1680 cm^−1), this compound returned a Turns of 20.2%. Besides, the “activity against SARS-CoV-2” value in data set [1] (hLYS alone) is “appeared to exhibit activity against SARS-CoV-2”. For the same compound, the inhibitory activity entry in data set [6] is on record as “No inhibitory activity”. In data set [7], this compound showed a Fragment of 0.7%, an HMW of 17.2% and a Monomer of 82.1%.

These data come from patent publication US20240041805A1, “PHARMACEUTICAL COMPOSITIONS OF NICLOSAMIDE AND A PROTEIN” (priority 2020, published 2024).
